Entries after “also recorded” stand apart in the source; their conditions may differ.
Tests used:
PPT1 = molecular target: T1, PPT1 (Homo sapiens, UniProt P50897); experiment: In situ inhibition of hPPT1 in transfected HEK293T cells, competitive ABPP with Compound 39 probe; type: cell-based; design: expressed in transfected cells; host or cells: HEK293T; conditions: 2 μM, hPPT1-transfected HEK293T cells, in situ
T1 sequence (P50897 28-306): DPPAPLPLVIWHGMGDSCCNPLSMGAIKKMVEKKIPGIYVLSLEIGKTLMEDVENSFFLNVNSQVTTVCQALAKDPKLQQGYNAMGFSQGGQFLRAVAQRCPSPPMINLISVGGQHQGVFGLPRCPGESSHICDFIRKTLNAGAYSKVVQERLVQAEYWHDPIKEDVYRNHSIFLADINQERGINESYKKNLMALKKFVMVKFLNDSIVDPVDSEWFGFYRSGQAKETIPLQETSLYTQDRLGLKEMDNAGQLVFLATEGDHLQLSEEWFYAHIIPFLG
Description: HEK293T cells were seeded at 2×10^5 per well on 6 well plates and grown for 48 h. They were then transfected with mABHD3 (pCMV-Sport6), hABHD4 (pcDNA3.1/myc-his), hPPT1 (pCMV6-XL5), or hPPT1 S115A (pCMV6-XL5), by incubating 0.5 μg of DNA with 3 μL of PEI MAX (1 mg/mL, Polysciences, Inc) in serum-free DMEM for 30 min, then adding them to cells. After 48 h cells were either treated with compound in situ, as described above, or harvested for in vitro studies. The […] PPT1 mutation was introduced using QuikChange II Site Directed Mutagenesis Kit (Agilent) with the following primers: […]
In situ inhibitor treatments of human cell lines were performed as described previously (Hsu et al., J Med Chem 56, 8270-8279, 2012). Briefly, PC3 or transfected HEK293T cells were grown to confluency in serum-containing media (RPMI or DMEM, respectively). The culture media was then removed and replaced with fresh media containing DMSO or inhibitor at the desired concentration and incubated for 4 hours in a tissue culture incubator (37° C., 5% CO2). Cells were then washed with PBS, harvested, washed with PBS once more, and lysed with a probe sonicator.
This possibility was explored by treating HEK293T cells transfected with human PPT1 (hPPT1) with Compound 37 (5 μM, 4 h pre-treatment) or DMSO followed by cell lysis and treatment with Compound 39 (5 μM, 1 h). A strong, but diffuse Compound 37-sensitive, Compound 39-labeled protein band was detected by gel-based ABPP in hPPT1-transfected, but not mock-transfected cell lysates (see FIG. 14), and this diffuse signal was compressed to a tight, faster-migrating band matching the predicted molecular weight of PPT1 following treatment with the glycosidase PNGaseF (see FIG. 14). Western blotting with an anti-PPT1 antibody confirmed a similar migration pattern for hPPT1 protein in transfected cell lysates (see FIG. 14, bottom panel).
A structurally diverse panel of N-hydroxy bicyclic hydantoin carbamates were assayed at 2 or 0.2 μM for in situ inhibition of hPPT1 in transfected HEK293T cells.

LYPLA1 = molecular target: T2, LYPLA1 (Mus musculus, UniProt P97823); experiment: Gel-based competitive ABPP in vitro, mouse brain membrane proteome; type: biochemical; conditions: 30 min, one replicate; for inhibition at 0.1 µM: 0.1 μM compound, read-out: LYPLA1 % INH 0.1 μM; for inhibition at 1 µM: 1 μM compound, read-out: LYPLA1 % INH 1 μM; for inhibition at 10 µM: 10 μM compound, read-out: LYPLA1 % INH 10 μM; for inhibition at 100 µM: 100 μM compound, read-out: LYPLA1 % INH 100 μM
T2 construct: a complex proteome endogenously expressing LYPLA1/2 was incubated with test compound; from tissue; host or cells: mouse brain, membrane fraction
T2 sequence (P97823 whole entry): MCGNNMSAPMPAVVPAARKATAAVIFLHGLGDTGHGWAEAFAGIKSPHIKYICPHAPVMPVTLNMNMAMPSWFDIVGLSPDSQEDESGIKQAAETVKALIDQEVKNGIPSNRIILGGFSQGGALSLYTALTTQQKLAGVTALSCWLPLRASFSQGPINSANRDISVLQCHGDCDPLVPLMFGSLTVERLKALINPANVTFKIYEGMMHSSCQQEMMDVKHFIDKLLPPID
Description: (§1) Assay Overview: The purpose of this assay was to determine whether test compounds can inhibit LYPLA1 and LYPLA2 in a complex proteomic lysate and to assess anti-target inhibition using a competitive activity-based proteomic profiling (ABPP) assay. In this assay, a complex proteome endogenously expressing LYPLA1/2 was incubated with test compound followed by reaction with a rhodamine-conjugated fluorophosphonate (FP-Rh) serine-hydrolase specific activity-based probe. The reaction products were separated by SDS-PAGE and visualized in-gel using a flatbed fluorescence scanner. The percentage activity remaining was determined by measuring the integrated optical density of the bands. […] Percent inhibition was calculated relative to a DMSO (no compound) control.
(§2) Protocol Summary: Mouse brain membrane proteome (50 μL reaction volume, 1 mg/mL in DPBS) was treated with 0.1-100 μM test compound (1 μL of a 50× stock in DMSO) for 30 minutes at 37° C. FP-Rh (1 μL of 50× stock in DMSO, Thermo #88318) was added to a final concentration of 2 μM. The reactions were incubated for 30 minutes at 25° C., quenched with 16 μL 4×SDS-PAGE loading buffer (reducing), separated by SDS-PAGE and visualized by in-gel fluorescent scanning. The percentage activity remaining was determined by measuring the integrated optical density of the bands relative to a DMSO-only (no compound) control. Assay Cutoff: Compounds with ≥50% inhibition of targets at 1 μM test compound concentration were considered active.
(§3) N-Hydroxy bicyclic hydantoin carbamates (Compounds 1-20) listed in Table 1 were subjected to gel-based competitive ABPP screening to assess SH reactivity against more than 20 FP-sensitive SHs visible by 1D SDS-PAGE separation and fluorescent detection in the mouse brain proteome (see FIG. 1). […] Compound treatment ([…], 30 minutes) was followed by labeling with SH-specific ABPP probe FP-Rh (2 μM, 30 minutes), 1D-SDS-PAGE, and in-gel fluorescent visualization of FP-labeled proteins. Assignment of LYPLA1/2 bands was based on correlation of molecular weights, expression and inhibition profiles with LC-MS/MS data and recombinant enzyme expression. Proteins were listed as anti-targets if at least 50% inhibition was observed as quantified relative to the DMSO control.
(§4) Compounds 1-20 were subjected to gel-based competitive ABPP profiling to assess potency and selectivity against several dozen FP-sensitive SHs in the mouse brain membrane proteome, which endogenously expresses LYPLA1 and LYPLA2, as well a diversity of potential SH anti-targets. Compounds were tested at 100 μM, 10 μM, 1 μM, and/or 0.1 μM compound concentration.

LYPLA2 = molecular target: T3, LYPLA2 (Mus musculus, UniProt Q9WTL7); experiment: as above; type: biochemical; conditions: 30 min, one replicate; for inhibition at 0.1 µM: 0.1 μM compound, read-out: LYPLA2 % INH 0.1 μM; for inhibition at 1 µM: 1 μM compound, read-out: LYPLA2 % INH 1 μM; for inhibition at 10 µM: 10 μM compound, read-out: LYPLA2 % INH 10 μM; for inhibition at 100 µM: 100 μM compound, read-out: LYPLA2 % INH 100 μM
T3 construct: a complex proteome endogenously expressing LYPLA1/2 was incubated with test compound; from tissue; host or cells: mouse brain, membrane fraction
T3 sequence (Q9WTL7 whole entry): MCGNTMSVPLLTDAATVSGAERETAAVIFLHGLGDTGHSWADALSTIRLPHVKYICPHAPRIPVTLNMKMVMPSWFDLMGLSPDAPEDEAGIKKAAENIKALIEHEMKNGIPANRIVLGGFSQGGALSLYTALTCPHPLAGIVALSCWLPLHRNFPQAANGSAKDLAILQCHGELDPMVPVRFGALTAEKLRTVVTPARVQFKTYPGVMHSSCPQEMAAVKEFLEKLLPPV
Description: as §1, §2, §3, §4

[1] = tested on: FP-sensitive SHs in the mouse brain membrane proteome; experiment: Gel-based competitive ABPP in vitro, mouse brain membrane proteome, anti-targets; type: biochemical; conditions: for Anti-target(s) 0.1 μM: SHs with at least 50% inhibition at 0.1 μM compound; for Anti-target(s) 1 μM: SHs with at least 50% inhibition at 1 μM compound; for Anti-target(s) 10 μM: SHs with at least 50% inhibition at 10 μM compound; for Anti-target(s) 100 μM: SHs with at least 50% inhibition at 100 μM compound
Description: as §1, §2, §3, §4

human LYPLA1 = molecular target: T4, human LYPLA1 (Homo sapiens, UniProt O75608); experiment: IC50 by gel-based competitive ABPP in vitro, soluble HeLa cell proteome; type: biochemical; conditions: human LYPLA isoform, three replicates; Table 2 prints no unit, nM; read-out: LYPLA1 IC50
T4 construct: endogenous human LYPLA1/2 in a HeLa soluble proteome; endogenous in cells; host or cells: HeLa (soluble proteome in vitro; cultured cells in situ)
T4 sequence (O75608 whole entry, canonical isoform): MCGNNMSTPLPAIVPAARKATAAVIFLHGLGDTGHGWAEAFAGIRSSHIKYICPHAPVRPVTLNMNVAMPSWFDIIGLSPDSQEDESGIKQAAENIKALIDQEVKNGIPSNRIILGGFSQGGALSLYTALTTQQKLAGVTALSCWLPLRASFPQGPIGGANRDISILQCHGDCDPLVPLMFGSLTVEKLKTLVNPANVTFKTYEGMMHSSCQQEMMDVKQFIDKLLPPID
Description: (§5) Assay Overview: The purpose of this assay was to determine IC50 values of powder samples of test compounds for enzyme of interest activity, and anti-targets in a complex proteomic lysate using a gel-based competitive ABPP assay. In this assay, a complex proteome was incubated with test compound followed by reaction with FP-Rh and SDS-PAGE analysis as described above.
(§6) Protocol Summary: Soluble HeLa cell proteome (50 μL reaction volume, 1 mg/mL in DPBS) or mouse brain membrane proteome (50 μL reaction volume, 1 mg/mL in DPBS) was treated with varying concentrations of test compound (1 μL of a 50× stock in DMSO) for 30 minutes at 37° C. FP-Rh (1 μL of 50× stock in DMSO) was added to a final concentration of 2 μM. The reaction was incubated for 30 minutes at 25° C., quenched with 16 μL 4×SDS-PAGE loading buffer (reducing), separated by SDS-PAGE and visualized by in-gel fluorescent scanning. The percentage activity remaining was determined by measuring the integrated optical density of the enzymes of interest, and anti-target bands relative to a DMSO-only (no compound) control. IC50 values were determined from dose-response curves from three replicates at each inhibitor concentration: 1, 10, 100, 1000, 10000 nM and 0.01, 0.1, 1, 10, 100, 1000, 10000, 50000, and 100000 nM.

human LYPLA2 = molecular target: T5, human LYPLA2 (Homo sapiens, UniProt O95372); experiment: as above; type: biochemical; conditions: human LYPLA isoform, three replicates; Table 2 prints no unit, nM; read-out: LYPLA2 IC50
T5 construct: endogenous human LYPLA1/2 in a HeLa soluble proteome; endogenous in cells; host or cells: HeLa (soluble proteome in vitro; cultured cells in situ)
T5 sequence (O95372 whole entry, canonical isoform): as the sequence (Q9WTL7 whole entry) above, with N154A, T193S counted along it
Description: as §5, §6

| inhibition at 0.1 µM (LYPLA1) [%] | inhibition at 1 µM (LYPLA1) [%] | inhibition at 10 µM (LYPLA1) [%] | inhibition at 100 µM (LYPLA1) [%] | inhibition at 0.1 µM (LYPLA2) [%] | inhibition at 1 µM (LYPLA2) [%] | inhibition at 10 µM (LYPLA2) [%] | inhibition at 100 µM (LYPLA2) [%] | IC50 (human LYPLA1) [nM] | IC50 (human LYPLA2) [nM] | SMILES | hPPT1 (in situ), % @ 2 μM (PPT1) [% @ 2 μM] | Anti-target(s) 0.1 μM [1] | Anti-target(s) 1 μM [1] | Anti-target(s) 10 μM [1] | Anti-target(s) 100 μM [1] |
| --- | --- | --- | --- | --- | --- | --- | --- | --- | --- | --- | --- | --- | --- | --- | --- |
|  |  |  |  |  |  |  |  |  |  | COc1ccc(N2CCN(C(=O)ON3C(=O)C4CN(CC5CCN(C(=O)OC(C)(C)C)CC5)CCN4C3=O)CC2)cc1 (stereo not shown) [Compound 24, 7-((1-(tert-butoxycarbonyl)piperidin-4-yl)methyl)-1,3-dioxohexahydroimidazo[1,5-a]pyrazin-2(3H)-yl 4-(4-methoxyphenyl)piperazine-1-carboxylate] | 100 |  |  |  |  |
| 80 | 100 | 100 | 100 | 80 | 100 | 100 | 100 | 92 | 217 | CC(C)(C)CC(=O)N1CCN2C(=O)N(OC(=O)N3CCC(CCc4ccc(Cl)cc4)CC3)C(=O)C2C1 (stereo not shown) [Compound 4, 7-(3,3-dimethylbutanoyl)-1,3-dioxohexahydroimidazo[1,5-a]pyrazin-2(3H)-yl 4-(4-chlorophenethyl)piperidine-1-carboxylate] |  | ABHD6 | FAAH,; also recorded: ABHD6 | FAAH,; also recorded: ABHD12,; also recorded: MAGL,; also recorded: ABHD6 | FAAH,; also recorded: ABHD12,; also recorded: ABHD4,; also recorded: MAGL,; also recorded: ABHD6 |
| 50 | 100 | 100 | 100 | 50 | 100 | 100 | 100 | 225 | 384 | O=C(ON1C(=O)C2CN(C(=O)N3CCCC3)CCN2C1=O)N1CCC(CCc2ccc(Cl)cc2)CC1 (stereo not shown) [Compound 3, 1,3-dioxo-7-(pyrrolidine-1-carbonyl)hexahydroimidazo[1,5-a]pyrazin-2(3H)-yl 4-(4-chlorophenethyl)piperidine-1-carboxylate] |  | ABHD6 | FAAH,; also recorded: ABHD6 | FAAH,; also recorded: ABHD6 | FAAH,; also recorded: ABHD12,; also recorded: ABHD4,; also recorded: MAGL,; also recorded: ABHD6 |
| 0 | 80 | 95 | 100 | 0 | 80 | 95 | 100 | 306 | 726 | O=C(ON1C(=O)C2CN(C(=O)c3ccc(Br)cc3)CCN2C1=O)N1CCC(CCc2ccc(Cl)cc2)CC1 (stereo not shown) [Compound 7, 7-(4-bromobenzoyl)-1,3-dioxohexahydroimidazo[1,5-a]pyrazin-2(3H)-yl 4-(4-chlorophenethyl)piperidine-1-carboxylate] |  | ABHD6 | ABHD6 | FAAH,; also recorded: ABHD12,; also recorded: ABHD6 | FAAH,; also recorded: ABHD12,; also recorded: ABHD4,; also recorded: MAGL,; also recorded: ABHD6 |
